# Reference: US20040006070A1, “Intraspinal continuous infusion of midazolam hydrochloride for the treatment of pain” (priority 2002, published 2004)
# Where a name gives a salt, the structure may show the parent alone.
# Experiment: Bloodwork: complete blood count, electrolytes, extended blood chemistry
# Format: in vivo, sheep
# Settings: for Total Bili: ref 0.14-0.32; for K+: ref 3.9-5.4; for Phos: ref 5-7.3; for Total Prot: ref 6-7.9
# Description: Indirect blood pressure, pulse recording, pain testing (mechanical stimulus device, cold and warm water baths see description in procedure) and weight were taken on days 1, 3, 7, 15, 22, 29, 36, and 43. Venous blood samples (15 ml drawn from the jugular vein with Vacutainer brand blood collection tubes) for complete blood count, electrolytes, and extended blood chemistry were drawn on days 1, 15, and 43 (mild procedure only light hand restraint necessary).
# [1] = sheep Chicken Hawk #87, 5 mg/day, Baseline
# [2] = sheep Chicken Hawk #87, 5 mg/day, Day 1
compound,measurement,setting,value
"Cc1ncc2n1-c1ccc(Cl)cc1C(c1ccccc1F)=NC2 [Midazolam, midazolam hydrochloride]",Differential Count: Seg,"sheep #518, 5 mg/day, Day 15",33%
same,Gamma GT,"sheep #518, 5 mg/day, Day 15",90 U/L
same,Glucose,"sheep #518, 5 mg/day, Day 15",74 mg/dL
same,Hct,"sheep #518, 5 mg/day, Day 15",33.0%
same,Hgb,"sheep #518, 5 mg/day, Day 15",11.6 g/dL
same,MCH,"sheep #518, 5 mg/day, Day 15",9.6 pg
same,MCHC,"sheep #518, 5 mg/day, Day 15",31.3 G/dl
same,MCV,"sheep #518, 5 mg/day, Day 15",30.7 fL
same,Na+,"sheep #518, 5 mg/day, Day 15",151 mEq/l
same,Platlet Count,"sheep #518, 5 mg/day, Day 15",533000 µL⁻¹
same,RBC,"sheep #518, 5 mg/day, Day 15",1.208e+07 µL⁻¹
same,WBC,"sheep #518, 5 mg/day, Day 15",5300 µL⁻¹
same,Total Bili,"sheep #518, 5 mg/day, Day 15",0.1 mg/dL
same,Creatinine,"sheep #518, 5 mg/day, Day 15, ref 1-2.7",1.6 mg/dL
same,Albumin,"sheep #518, 5 mg/day, Day 15, ref 2.4-3",4.1 G/dl
same,K+,"sheep #518, 5 mg/day, Day 15",4.6 mEq/l
same,Phos,"sheep #518, 5 mg/day, Day 15",5.1 mg/dL
same,Total Prot,"sheep #518, 5 mg/day, Day 15",6.7 G/dl
same,ALT,"sheep #518, 5 mg/day, Day 43",12.0 U/L
same,AST,"sheep #518, 5 mg/day, Day 43",76 U/L
same,Alk Phos,"sheep #518, 5 mg/day, Day 43",89 U/L
same,BUN,"sheep #518, 5 mg/day, Day 43",7 mg/dL
same,CPK,"sheep #518, 5 mg/day, Day 43",787 U/L
same,Cholesterol,"sheep #518, 5 mg/day, Day 43",69 mg/dL
same,Differential Count: Atyp lym,"sheep #518, 5 mg/day, Day 43",1%
same,Differential Count: Eosin,"sheep #518, 5 mg/day, Day 43",4%
same,Differential Count: Lymph,"sheep #518, 5 mg/day, Day 43",48%
same,Differential Count: Seg,"sheep #518, 5 mg/day, Day 43",47%
same,Gamma GT,"sheep #518, 5 mg/day, Day 43",68 U/L
same,Glucose,"sheep #518, 5 mg/day, Day 43",89 mg/dL
same,Hct,"sheep #518, 5 mg/day, Day 43",44.6%
same,Hgb,"sheep #518, 5 mg/day, Day 43",13.7 g/dL
same,MCH,"sheep #518, 5 mg/day, Day 43",9.6 pg
same,MCHC,"sheep #518, 5 mg/day, Day 43",30.7 G/dl
same,MCV,"sheep #518, 5 mg/day, Day 43",31.1 fL
same,Na+,"sheep #518, 5 mg/day, Day 43",152 mEq/l
same,Platlet Count,"sheep #518, 5 mg/day, Day 43",448000 µL⁻¹
same,RBC,"sheep #518, 5 mg/day, Day 43",1.254e+07 µL⁻¹
same,WBC,"sheep #518, 5 mg/day, Day 43",4800 µL⁻¹
same,Total Bili,"sheep #518, 5 mg/day, Day 43",0.1 mg/dL
same,Creatinine,"sheep #518, 5 mg/day, Day 43, ref 1-2.7",1.7 mg/dL
same,Albumin,"sheep #518, 5 mg/day, Day 43, ref 2.4-3",3.5 G/dl
same,K+,"sheep #518, 5 mg/day, Day 43",4.6 mEq/l
same,Phos,"sheep #518, 5 mg/day, Day 43",6.4 mg/dL
same,Total Prot,"sheep #518, 5 mg/day, Day 43",6.2 G/dl
same,Differential Count: Atyp lym,[1],0%
same,Differential Count: Baso,[1],0%
same,Differential Count: Eosin,[1],2%
same,Differential Count: Lymph,[1],41%
same,Differential Count: Mono,[1],4%
same,Differential Count: Seg,[1],53%
same,Hct,[1],31.5%
same,Hgb,[1],10.8 g/dL
same,MCH,[1],11.0 pg
same,MCHC,[1],34.2 g/dL
same,MCV,[1],32.3 fL
same,Platlet Count,[1],848000 µL⁻¹
same,RBC,[1],9.77e+06 µL⁻¹
same,WBC,[1],6180 µL⁻¹
same,ALT,[2],4 U/L
same,AST,[2],63 U/L
same,Albumin,[2],3.2 g/dL
same,Alk Phos,[2],54 U/L
same,BUN,[2],14 mg/dL
same,CPK,[2],163 U/L
same,Cholesterol,[2],71 mg/dL
same,Creatinine,[2],1.3 mg/dL
same,Differential Count: Atyp lym,[2],0%
same,Differential Count: Baso,[2],0%
same,Differential Count: Eosin,[2],2%
same,Differential Count: Lymph,[2],55%
same,Differential Count: Mono,[2],7%
same,Differential Count: Seg,[2],36%
same,Gamma GT,[2],55 U/L
